As usually defined, the IC50 is the concentration at which inhibition is half-maximal.

Each structure is given as a SMILES string. Like-named read-outs stand apart in the source and are kept apart here.

Assay type in all cases: cell-based, human
In one assay the test system is Hep G2 cells. The experiment in a line: CCK-8 anti-proliferative assay, Hep G2. The following applies: Homo sapiens, HepG2; Table 12; co-incubated 48 h; read-out: Anti-proliferative activity (IC50 ± standard deviation) Hep G2. Summed up:
(§1)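 Compound was added at final concentrations of 1 to 30 μM, in triplicate, to cells at 70% confluence (5,000 per well seeded). After co-incubation, CCK-8 was added for 1–4 h depending on the cell line. Inhibition from OD450 relative to untreated cells gave IC50.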
For orientation: Tetrazolium dyes change colour on reduction, which living cells bring about.

In the next assay the test system is T24 cells. The experiment in a line: CCK-8 anti-proliferative assay, T24. The following applies: Homo sapiens, T-24; Table 10; co-incubated 48 h; read-out: Anti-proliferative activity (IC50 ± standard deviation) T24. Summed up: as §1
The next assay relates to PANC-1 cells. As to the kind of experiment: CCK-8 anti-proliferative assay, PANC-1. The following applies: Homo sapiens, PANC-1; Table 11; co-incubated 48 h; read-out: Anti-proliferative activity (IC50 ± standard deviation) PANC-1. Summed up: as §1
The subject of a further assay is 143B cells. The experiment in a line: CCK-8 anti-proliferative assay, 143B. The following applies: Homo sapiens, 143B. The text has this: (§2) The obtained quinazolinyl-aryl urea derivatives were screened for compounds with optimal activity using the following method. All cell lines employed in this experiment were of human origin, including: bladder cancer cells: J82, UM-UC-3, T24, 5637, pancreatic cancer cells: BxPC-3, PANC-1, osteosarcoma cells: 143B, MG-63, cervical cancer cells: HeLa, breast cancer cells: MCF-7, NSCLC cells: A549, hepatoblastoma cells: Hep G2, and ovarian cancer cells: SK-OV-3, as well as normal cell lines: immortalized ureteral epithelial cells (SV-HUC-1), embryonic lung fibroblasts (WI-38).
(§3) Experimental Procedure for Anti-Proliferative Activity Evaluation: The CCK-8 assay was employed. Cells in logarithmic growth phase were harvested, adjusted to appropriate density, and uniformly seeded into 96-well plates using a multichannel pipette (180 μL cell suspension containing complete medium per well, 5,000 cells/well). Blank control wells (containing basal medium, CCK-8 solution, and DMSO only) were set. Cells were incubated at 37° C. under 5% CO2. After 70% confluency was reached, test compounds (target compounds/positive controls) were added at final concentrations of 1, 2, 4, 6, 8, 12, 16, 24, and 30 μM (3 repeated wells per concentration). Compounds were pre-dissolved in DMSO, sterilized, and diluted with medium before adding 20 μL/well. After co-incubation for designated durations, 10 μL CCK-8 solution was added per well followed by 1-4 h incubation (different cells have different incubation times). The reaction was terminated, and OD (optical density) values at 450 nm were measured using a microplate reader. Inhibition rates were calculated as: (ODcontrol−ODtreatment)/ODcontrol×100%. Median inhibitory concentrations (IC50 values) were derived using Origin v8.0 software.

A further assay concerns UM-UC-3 cells. The experiment in a line: CCK-8 anti-proliferative assay, UM-UC-3. The following applies: Homo sapiens, UMUC3; Table 10; co-incubated 48 h; read-out: Anti-proliferative activity (IC50 ± standard deviation) UM-UC-3. The procedure: (§4) The obtained quinazolinyl-aryl urea derivatives were screened for compounds with optimal activity using the following method.
as §3, with “The reaction was terminated, and OD (optical density) values at 450 nm were measured using a microplate reader.” left out

Another assay has as its system SK-OV-3 cells. The experiment in a line: CCK-8 anti-proliferative assay, SK-OV-3. The following applies: Homo sapiens, SK-OV-3; Table 12; co-incubated 48 h; read-out: Anti-proliferative activity (IC50 ± standard deviation) SK-OV-3. The procedure: as §4
as §3, with “The reaction was terminated, and OD (optical density) values at 450 nm were measured using a microplate reader.” left out

The test system of a further assay is MG-63 cells. The experiment in a line: CCK-8 anti-proliferative assay, MG-63. The following applies: Homo sapiens, MG-63.
Description: as §2, §3

For a further assay, the system named is 5637 cells. The experiment in a line: CCK-8 anti-proliferative assay, 5637. The following applies: Homo sapiens; Table 10; co-incubated 48 h; read-out: Anti-proliferative activity (IC50 ± standard deviation) 5637. Summed up:
(§5)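 Dose range 1–30 μM final (nine levels, n=3), added at 70% confluency to 5,000 cells/well cultured at 37° C., 5% CO2. CCK-8 incubation 1-4 h depending on cell type.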

A further assay has as its system BxPC-3 cells. As to the kind of experiment: CCK-8 anti-proliferative assay, BxPC-3. The following applies: Homo sapiens, BXPC-3; Table 11; co-incubated 48 h; read-out: Anti-proliferative activity (IC50 ± standard deviation) BxPC-3. Summed up:
as §1

For the next assay, the system named is MCF-7 cells. As to the kind of experiment: CCK-8 anti-proliferative assay, MCF-7. The following applies: Homo sapiens, MCF7; Table 12; co-incubated 48 h; read-out: Anti-proliferative activity (IC50 ± standard deviation) MCF-7. Summed up: as §5
The test system of assay [1] is immortalized ureteral epithelial cells (SV-HUC-1). As to the kind of experiment: CCK-8 anti-proliferative assay, normal cells SV-HUC-1. The following applies: Homo sapiens, SV-HUC1; Table 13; normal cells; co-incubated 48 h; read-out: Anti-proliferative activity (IC50 ± standard deviation) SV-HUC-1. The procedure: as §4
as §3, with “The reaction was terminated, and OD (optical density) values at 450 nm were measured using a microplate reader.” left out

A further assay has as its system HeLa cells. The experiment in a line: CCK-8 anti-proliferative assay, HeLa. The following applies: Homo sapiens, HeLa; Table 12; co-incubated 48 h; read-out: Anti-proliferative activity (IC50 ± standard deviation) HeLa. The procedure:
as §4
as §3, with “The reaction was terminated, and OD (optical density) values at 450 nm were measured using a microplate reader.” left out

Another assay deals with A549 cells. As to the kind of experiment: CCK-8 anti-proliferative assay, A549. The following applies: Homo sapiens, A549; Table 13; co-incubated 48 h; read-out: Anti-proliferative activity (IC50 ± standard deviation) A549. Summed up: as §5
The test system of the next assay is J82 cells. As to the kind of experiment: CCK-8 anti-proliferative assay, J82. The following applies: Homo sapiens, J82; Table 10; co-incubated 48 h; read-out: Anti-proliferative activity (IC50 ± standard deviation) J82. The procedure: as §4
as §3, with “The reaction was terminated, and OD (optical density) values at 450 nm were measured using a microplate reader.” left out

For assay [2], the system named is embryonic lung fibroblasts (WI-38). The experiment in a line: CCK-8 anti-proliferative assay, normal cells WI-38. The following applies: Homo sapiens, WI-38, Table 13, co-incubated 48 h, read-out: Anti-proliferative activity (IC50 ± standard deviation) WI-38.
Description: as §2, §3

Where [3] appears, read: Table 11, co-incubated 48 h, read-out: Anti-proliferative activity (IC50 ± standard deviation) 143B.
The mark [4] stands for this setting: Table 11, co-incubated 48 h, read-out: Anti-proliferative activity (IC50 ± standard deviation) MG-63.

In the case of `COc1cc2ncnc(NCc3cccc(NC(=O)Nc4cc(C)cc(C)c4)c3)c2cc1OCCCCCCN1CCC(CN2CCN(c3ccccn3)CC2)CC1` [Compound 8-2f, N-(3-(((7-methoxy-6-((6-(4-((4-(pyridin-2-yl)piperazin-1-yl)methyl)piperidin-1-yl)hexyl)oxy)quinazolin-4-yl)amino)methyl)phenyl)-N′-(3,5-dimethylphenyl)urea], the 50% inhibitory concentration (IC50) in the assay with Hep G2 cells is 11.7 ± 0.84 µM; in the assay with T24 cells, 6.01 ± 0.46 µM; in the assay with PANC-1 cells, 12.8 ± 0.62 µM; with 143B cells (setting [3]) it was 5.75 ± 0.36 µM; in the assay with UM-UC-3 cells it was 12 ± 0.86 µM; in the assay on SK-OV-3 cells, 14.2 ± 0.84 µM. For the same compound, the half-maximal inhibitory concentration (IC50) with MG-63 cells (setting [4]) is 6.92 ± 0.53 µM; in the assay on 5637 cells it was 6.91 ± 0.67 µM; in the assay on BxPC-3 cells, 9.06 ± 0.42 µM; in the assay on MCF-7 cells, 8.09 ± 0.48 µM; in assay [1], 11.6 ± 0.79 µM; with HeLa cells it was 7.25 ± 0.38 µM. Also, the IC50 is 7.67 ± 0.93 µM with A549 cells, 12 ± 0.87 µM in the assay on J82 cells and 9.89 ± 0.53 µM in [2].

For the compound `COc1cc2ncnc(NCc3cccc(NC(=O)Nc4cc(C(F)(F)F)cc(C(F)(F)F)c4)c3)c2cc1OCCCCCCN1CCC(CN2CCN(c3ccccn3)CC2)CC1` [Compound 8-2w, N-(3-(((7-methoxy-6-((6-(4-((4-(pyridin-2-yl)piperazin-1-yl)methyl)piperidin-1-yl)hexyl)oxy)quinazolin-4-yl)amino)methyl)phenyl)-N′-(3,5-bis(trifluoromethyl)phenyl)urea], the IC50 in the assay with Hep G2 cells is 5.87 ± 0.49 µM; in the assay on T24 cells it was 5.92 ± 0.54 µM; in the assay on PANC-1 cells it was 15.1 ± 0.66 µM; in the assay on 143B cells (setting [3]) it was 8.04 ± 0.45 µM; in the assay with UM-UC-3 cells it was 6.42 ± 0.16 µM; with SK-OV-3 cells, 5.16 ± 0.27 µM. Moreover, the half-inhibitory concentration (IC50) was 8.33 ± 0.81 µM in the assay with MG-63 cells (setting [4]); 13.1 ± 0.67 µM in the assay on 5637 cells; 15.5 ± 0.92 µM in the assay with BxPC-3 cells; 5.59 ± 0.46 µM in the assay with MCF-7 cells; 7.19 ± 0.68 µM in [1]; 6.42 ± 0.56 µM in the assay on HeLa cells. Moreover, the IC50 amounted to 9.69 ± 0.72 µM with A549 cells, 7.84 ± 0.52 µM in the assay with J82 cells and 9.49 ± 0.42 µM in assay [2].

For the compound `COc1cc2ncnc(NCc3cccc(NC(=O)Nc4ccc(F)c(C(F)(F)F)c4)c3)c2cc1OCCCCCCN1CCC(CN2CCN(c3ccccn3)CC2)CC1` [Compound 8-2u], the IC50 is 14.3 ± 1.33 µM in the assay on Hep G2 cells; 14.1 ± 0.77 µM with T24 cells; above 30 µM in the assay on PANC-1 cells; 13.6 ± 0.92 µM in the assay on 143B cells (setting [3]); 11.9 ± 0.66 µM in the assay with UM-UC-3 cells; 15.6 ± 0.92 µM in the assay on SK-OV-3 cells. The IC50 is 16 ± 1.07 µM in the assay with MG-63 cells (setting [4]); 13.2 ± 0.78 µM with 5637 cells; 25.4 ± 1.57 µM in the assay with BxPC-3 cells; 9.92 ± 0.86 µM in the assay on MCF-7 cells; 23.1 ± 0.97 µM in assay [1]; above 30 µM with HeLa cells. Further, the half-inhibitory concentration (IC50) in the assay on A549 cells turned out to be 12.4 ± 1.43 µM; in the assay with J82 cells it was 12.9 ± 0.66 µM; in [2], 15.9 ± 0.85 µM.

As to `COc1cc2ncnc(NCc3cccc(NC(=O)NCc4ccccc4)c3)c2cc1OCCCCCCN1CCC(CN2CCN(c3ccccn3)CC2)CC1` [Compound 8-2y, N-(3-(((7-methoxy-6-((6-(4-((4-(pyridin-2-yl)piperazin-1-yl)methyl)piperidin-1-yl)hexyl)oxy)quinazolin-4-yl)amino)methyl)phenyl)-N′-benzylurea], the IC50 in the assay with Hep G2 cells was 5.92 ± 0.66 µM; with T24 cells, 4.07 ± 0.19 µM; with PANC-1 cells, 7.36 ± 0.42 µM; in the assay on 143B cells (setting [3]), 6.74 ± 0.52 µM; in the assay with UM-UC-3 cells it was 3.92 ± 0.24 µM; in the assay with SK-OV-3 cells, 6.23 ± 0.56 µM. In addition, the IC50 worked out at 5.91 ± 0.46 µM in the assay with MG-63 cells (setting [4]); 4.92 ± 0.31 µM in the assay on 5637 cells; 11 ± 0.85 µM in the assay on BxPC-3 cells; 5.71 ± 0.54 µM with MCF-7 cells; 8.96 ± 0.67 µM in [1]; 5.02 ± 0.49 µM in the assay with HeLa cells. The IC50 is 7.01 ± 0.62 µM in the assay with A549 cells, 4.13 ± 0.32 µM with J82 cells and 9.89 ± 0.23 µM in assay [2].

With `COc1cc2ncnc(NCc3cccc(NC(=O)NC4CCCCC4)c3)c2cc1OCCCCCCN1CCC(CN2CCN(c3ccccn3)CC2)CC1` [Compound 8-2z, N-(3-(((7-methoxy-6-((6-(4-((4-(pyridin-2-yl)piperazin-1-yl)methyl)piperidin-1-yl)hexyl)oxy)quinazolin-4-yl)amino)methyl)phenyl)-N′-cyclohexylurea], the IC50 with Hep G2 cells is 5.23 ± 0.52 µM; with T24 cells it was 5.33 ± 0.52 µM; with PANC-1 cells it was 14.9 ± 0.98 µM; in the assay on 143B cells (setting [3]) it was 4.77 ± 0.26 µM; in the assay on 143B cells (read-out: IC50 values, osteosarcoma cells 143B) it was below 5 µM; with UM-UC-3 cells it was 3.71 ± 0.19 µM. Moreover, the IC50 in the assay on SK-OV-3 cells was 8.69 ± 0.72 µM; in the assay with MG-63 cells (setting [4]), 4.05 ± 0.34 µM; in the assay on MG-63 cells (read-out: IC50 values, osteosarcoma cells MG-63), below 5 µM; with 5637 cells it was 3.96 ± 0.19 µM; with BxPC-3 cells it was 10.3 ± 0.93 µM; in the assay with MCF-7 cells, 6.32 ± 0.49 µM. The half-maximal inhibitory concentration (IC50) in assay [1] turned out to be 8.02 ± 0.81 µM; in the assay on HeLa cells, 6.39 ± 0.68 µM; in the assay on A549 cells it was 11.1 ± 0.83 µM; in the assay with J82 cells, 3.93 ± 0.22 µM; in [2], 10.9 ± 0.59 µM.

The values above are taken from patent US20260285816A1, “Piperazinyl-Modified Quinazolinyl-Aryl Urea Derivative, And Preparation Method And Use Thereof” (Guangxi Normal University, priority 2025, published 2026).
